Test results reported in ChEMBL document CHEMBL4265930, “Dual potent ALK and ROS1 inhibitors combating drug-resistant mutants: Synthesis and biological evaluation of aminopyridine-containing diarylaminopyrimidine derivatives” (Eur J Med Chem, 2018).
pIC50: −log10 of the molar value. Calls of active or inactive are those of the source. The rule behind the calls is not given here.

Columns and labels:
HCC78 = assay: Antiproliferative activity against human HCC78 cells harboring SLC34A2-ROS1 after 72 hrs by MTT assay; format: functional, cell-based; conditions: HCC78, 72 h
NCI-H2228 = assay: cells; conditions: Homo sapiens, NCI-H2228, 72 h
Description: Antiproliferative activity against human NCI-H2228 cells harboring EML4-ALK after 72 hrs by MTT assay

KARPAS-299 [1] = assay: cells; conditions: Homo sapiens, KARPAS-299, 72 h
Description: Antiproliferative activity against human KARPAS299 cells harboring NPM-ALK after 72 hrs by MTT assay

BaF3 = assay: cells; conditions: Mus musculus, BaF3, 72 h
A549 = assay: cells; conditions: Homo sapiens, A549, 72 h
Description: Antiproliferative activity against human A549 cells after 72 hrs by MTT assay

[2] = target: ALK tyrosine kinase receptor (Homo sapiens, UniProt Q9UM73, L1196M)
Description: Inhibition of human N-terminal GST-tagged ALK L1196M mutant cytoplasmic domain (1058 to 1620 residues) expressed in baculovirus expression system after 1 hr by mobility shift assay

[3] = target: T1, ALK tyrosine kinase receptor (Homo sapiens, UniProt Q9UM73)
Description: Inhibition of human N-terminal GST-tagged ALK cytoplasmic domain (1058 to 1620 residues) expressed in baculovirus expression system after 1 hr by mobility shift assay

[4] = target: ALK tyrosine kinase receptor (Homo sapiens, UniProt Q9UM73, G1202R)
[5] = target: Proto-oncogene tyrosine-protein kinase ROS (Homo sapiens, UniProt P08922); assay: Inhibition of human N-terminal GST-tagged ROS cytoplasmic domain (1883 to 2347 residues) expressed in baculovirus expression system after 1 hr by mobility shift assay
[6] = target: Epidermal growth factor receptor (Homo sapiens, UniProt P00533)
Description: Inhibition of human N-terminal GST-tagged EGFR cytoplasmic domain (669 to 1210 residues) expressed in baculovirus expression system after 1 hr by mobility shift assay

[7] = test system: ALK tyrosine kinase receptor (Homo sapiens), Q9UM73 [L1196M]; assay: Potency index, ratio of ceritinib IC50 to compound IC50 for human N-terminal GST-tagged ALK L1196M mutant cytoplasmic domain (1058 to 1620 residues) expressed in baculovirus expression system
[8] = test system: ALK tyrosine kinase receptor (Homo sapiens), Q9UM73 [G1202R]; assay: Potency index, ratio of ceritinib IC50 to compound IC50 for human N-terminal GST-tagged ALK G1202R mutant cytoplasmic domain (1058 to 1620 residues) expressed in baculovirus expression system
[9] = target: T1, ALK tyrosine kinase receptor; assay: Inhibition of ALK phosphorylation in human KARPAS299 cells after 24 hrs by Western blot analysis; format: cell-based
Target sequence in this assay (Q9UM73 19-1620 limits assumed): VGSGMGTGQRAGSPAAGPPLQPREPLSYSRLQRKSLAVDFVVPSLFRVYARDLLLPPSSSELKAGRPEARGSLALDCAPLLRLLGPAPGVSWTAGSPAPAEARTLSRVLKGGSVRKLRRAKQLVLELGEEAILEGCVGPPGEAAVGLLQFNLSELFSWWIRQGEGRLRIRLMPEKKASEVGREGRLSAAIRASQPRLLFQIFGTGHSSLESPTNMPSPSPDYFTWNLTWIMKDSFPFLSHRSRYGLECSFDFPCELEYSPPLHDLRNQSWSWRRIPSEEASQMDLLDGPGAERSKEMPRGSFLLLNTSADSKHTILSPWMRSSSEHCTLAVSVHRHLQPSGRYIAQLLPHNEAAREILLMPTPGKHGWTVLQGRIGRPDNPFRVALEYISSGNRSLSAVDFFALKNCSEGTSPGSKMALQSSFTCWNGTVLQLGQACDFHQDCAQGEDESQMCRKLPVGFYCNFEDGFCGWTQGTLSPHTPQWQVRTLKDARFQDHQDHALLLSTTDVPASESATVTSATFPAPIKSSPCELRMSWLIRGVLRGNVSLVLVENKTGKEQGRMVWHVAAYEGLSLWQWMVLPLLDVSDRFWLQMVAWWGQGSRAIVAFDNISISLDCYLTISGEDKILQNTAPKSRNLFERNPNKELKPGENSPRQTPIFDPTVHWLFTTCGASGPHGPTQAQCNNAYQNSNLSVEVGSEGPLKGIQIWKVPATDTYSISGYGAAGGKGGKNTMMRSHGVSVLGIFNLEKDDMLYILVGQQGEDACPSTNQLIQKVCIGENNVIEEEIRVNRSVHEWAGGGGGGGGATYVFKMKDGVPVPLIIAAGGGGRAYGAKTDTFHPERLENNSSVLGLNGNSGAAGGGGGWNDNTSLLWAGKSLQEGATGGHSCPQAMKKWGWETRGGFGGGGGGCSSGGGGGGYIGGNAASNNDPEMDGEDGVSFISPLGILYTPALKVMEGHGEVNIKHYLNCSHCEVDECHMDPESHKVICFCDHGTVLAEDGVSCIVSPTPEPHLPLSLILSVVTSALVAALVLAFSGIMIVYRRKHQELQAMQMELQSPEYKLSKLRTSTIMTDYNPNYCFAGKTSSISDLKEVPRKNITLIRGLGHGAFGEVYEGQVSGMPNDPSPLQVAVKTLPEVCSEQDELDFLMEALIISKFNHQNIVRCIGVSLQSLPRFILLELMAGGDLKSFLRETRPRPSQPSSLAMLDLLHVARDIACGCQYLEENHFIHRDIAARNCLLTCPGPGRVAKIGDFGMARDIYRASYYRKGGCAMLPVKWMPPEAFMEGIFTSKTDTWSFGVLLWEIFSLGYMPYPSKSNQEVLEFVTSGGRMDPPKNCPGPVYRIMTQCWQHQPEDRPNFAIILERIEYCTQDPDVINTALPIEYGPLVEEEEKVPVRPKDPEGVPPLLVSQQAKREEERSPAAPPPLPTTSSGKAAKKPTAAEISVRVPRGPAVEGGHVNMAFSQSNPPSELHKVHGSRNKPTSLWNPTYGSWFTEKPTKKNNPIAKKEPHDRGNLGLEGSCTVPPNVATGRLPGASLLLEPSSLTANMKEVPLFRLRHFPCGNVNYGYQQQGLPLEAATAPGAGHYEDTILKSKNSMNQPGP

[10] = target: T1, ALK tyrosine kinase receptor; assay: Inhibition of ALK in human KARPAS299 cells assessed as decrease in Akt phosphorylation after 24 hrs by Western blot analysis; format: cell-based
Target sequence in this assay (Q9UM73 19-1620 limits assumed): as above

[11] = target: T1, ALK tyrosine kinase receptor; assay: Inhibition of ALK in human KARPAS299 cells assessed as decrease in STAT3 phosphorylation after 24 hrs by Western blot analysis; format: cell-based
Target sequence in this assay (Q9UM73 19-1620 limits assumed): as above

KARPAS-299 [12] = assay: Induction of apoptosis in human KARPAS299 cells assessed as late apoptotic cells at 25 to 50 nM after 24 hrs by AO/EB double staining based inverted fluorescence microscopy; format: functional, cell-based
KARPAS-299 [13] = assay: Induction of apoptosis in human KARPAS299 cells assessed as early apoptotic cells at 25 to 50 nM after 24 hrs by Hoechst 33258 staining based inverted fluorescence microscopy; format: functional, cell-based

Sequence of ALK tyrosine kinase receptor (Homo sapiens, UniProt Q9UM73, L1196M) (Q9UM73 19-1620 L1196M limits assumed): as the sequence (Q9UM73 19-1620 limits assumed) above, with L1178M counted along it
Sequence of ALK tyrosine kinase receptor (Homo sapiens, UniProt Q9UM73, G1202R) (Q9UM73 19-1620 G1202R limits assumed): as the sequence (Q9UM73 19-1620 limits assumed) above, with G1184R counted along it
Sequence of Proto-oncogene tyrosine-protein kinase ROS (P08922 whole entry, the tested form may be a part): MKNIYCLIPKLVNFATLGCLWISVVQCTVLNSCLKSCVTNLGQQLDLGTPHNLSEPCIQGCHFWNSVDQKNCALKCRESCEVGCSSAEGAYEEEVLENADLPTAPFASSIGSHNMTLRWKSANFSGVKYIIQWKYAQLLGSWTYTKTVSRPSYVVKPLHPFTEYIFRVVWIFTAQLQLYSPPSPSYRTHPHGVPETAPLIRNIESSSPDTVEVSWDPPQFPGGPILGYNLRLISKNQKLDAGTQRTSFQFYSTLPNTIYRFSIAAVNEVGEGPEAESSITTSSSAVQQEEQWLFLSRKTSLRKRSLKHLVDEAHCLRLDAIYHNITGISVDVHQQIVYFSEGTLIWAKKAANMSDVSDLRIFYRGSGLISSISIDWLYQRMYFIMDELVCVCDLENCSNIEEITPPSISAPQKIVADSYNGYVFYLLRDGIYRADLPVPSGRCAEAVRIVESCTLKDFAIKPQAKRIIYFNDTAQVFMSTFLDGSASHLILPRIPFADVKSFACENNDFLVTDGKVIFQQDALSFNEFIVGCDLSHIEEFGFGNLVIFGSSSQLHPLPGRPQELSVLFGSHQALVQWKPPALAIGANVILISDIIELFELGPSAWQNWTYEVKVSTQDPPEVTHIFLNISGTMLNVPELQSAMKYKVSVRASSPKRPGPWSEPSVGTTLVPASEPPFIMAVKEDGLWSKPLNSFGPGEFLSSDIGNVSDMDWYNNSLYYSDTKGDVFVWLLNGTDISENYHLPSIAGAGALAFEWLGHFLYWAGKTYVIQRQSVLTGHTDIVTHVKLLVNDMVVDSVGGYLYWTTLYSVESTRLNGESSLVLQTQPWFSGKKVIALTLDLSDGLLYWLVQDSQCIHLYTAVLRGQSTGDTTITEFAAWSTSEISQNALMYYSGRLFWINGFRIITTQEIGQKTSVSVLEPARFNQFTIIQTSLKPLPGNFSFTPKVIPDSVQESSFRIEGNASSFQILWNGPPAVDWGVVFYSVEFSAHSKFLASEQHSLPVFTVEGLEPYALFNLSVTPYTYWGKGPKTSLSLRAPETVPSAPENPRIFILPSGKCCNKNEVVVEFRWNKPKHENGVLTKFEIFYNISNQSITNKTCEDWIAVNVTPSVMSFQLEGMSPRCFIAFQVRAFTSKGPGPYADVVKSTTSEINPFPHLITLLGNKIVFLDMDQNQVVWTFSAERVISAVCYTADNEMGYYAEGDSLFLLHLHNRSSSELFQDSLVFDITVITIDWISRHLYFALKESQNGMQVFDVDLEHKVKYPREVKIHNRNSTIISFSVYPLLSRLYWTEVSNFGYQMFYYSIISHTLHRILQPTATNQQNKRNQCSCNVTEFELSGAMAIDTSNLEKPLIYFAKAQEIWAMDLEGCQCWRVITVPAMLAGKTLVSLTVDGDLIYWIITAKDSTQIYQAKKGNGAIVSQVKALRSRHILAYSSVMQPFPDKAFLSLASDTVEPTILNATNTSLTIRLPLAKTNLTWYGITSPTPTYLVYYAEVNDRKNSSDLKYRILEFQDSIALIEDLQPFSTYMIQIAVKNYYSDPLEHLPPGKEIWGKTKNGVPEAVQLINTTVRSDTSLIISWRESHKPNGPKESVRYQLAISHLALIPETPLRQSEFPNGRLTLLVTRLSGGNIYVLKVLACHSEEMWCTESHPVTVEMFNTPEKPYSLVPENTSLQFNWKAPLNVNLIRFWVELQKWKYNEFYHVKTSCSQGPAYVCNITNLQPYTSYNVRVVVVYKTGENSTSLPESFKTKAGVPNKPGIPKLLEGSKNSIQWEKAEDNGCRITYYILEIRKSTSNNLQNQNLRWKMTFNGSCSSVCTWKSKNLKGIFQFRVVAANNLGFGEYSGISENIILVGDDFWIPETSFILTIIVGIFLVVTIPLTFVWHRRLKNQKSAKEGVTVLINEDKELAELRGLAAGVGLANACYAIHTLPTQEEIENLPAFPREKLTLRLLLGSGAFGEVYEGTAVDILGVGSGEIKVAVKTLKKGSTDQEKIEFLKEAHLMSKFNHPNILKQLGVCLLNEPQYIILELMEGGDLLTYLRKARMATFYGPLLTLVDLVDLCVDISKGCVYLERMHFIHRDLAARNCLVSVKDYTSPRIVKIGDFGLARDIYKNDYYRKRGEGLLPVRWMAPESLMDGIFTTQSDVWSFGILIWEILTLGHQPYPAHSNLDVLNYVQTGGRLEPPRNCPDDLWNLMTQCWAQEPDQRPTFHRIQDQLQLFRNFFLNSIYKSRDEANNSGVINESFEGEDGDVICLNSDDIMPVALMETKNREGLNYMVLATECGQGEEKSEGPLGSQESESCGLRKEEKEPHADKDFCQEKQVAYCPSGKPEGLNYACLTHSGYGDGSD

Compound | pIC50 (HCC78) | pIC50 (NCI-H2228) | pIC50 (KARPAS-299 [1]) | pIC50 (BaF3) | pIC50 (A549) | pIC50 [2] | pIC50 [3] | pIC50 [4] | pIC50 [5] | pIC50 [6] | Ratio IC50 [7] | Ratio IC50 [8] | inhibition [9] | inhibition [10] | inhibition [11] | Activity (KARPAS-299 [12]) | Activity (KARPAS-299 [13])
COc1nc(N2CCCC2)ccc1Nc1ncc(Cl)c(Nc2ccccc2NS(C)(=O)=O)n1 | 6.62 | 6.77 | 7.10 | 6.89 | 6.15 |  |  |  |  |  |  |  |  |  |  |  | 
CS(=O)(=O)Nc1ccccc1Nc1nc(Nc2ccc(N3CCCC3)nc2)ncc1Cl | 7.10 | 6.32 | 7.10 | 6.13 | < 6.00 |  |  |  |  |  |  |  |  |  |  |  | 
COc1nc(N2CC(O)C2)ccc1Nc1ncc(Cl)c(Nc2ccccc2NS(=O)(=O)C2CC2)n1 | 7.05 | 7.30 | 6.96 | 7.15 | < 6.00 |  |  |  |  |  |  |  |  |  |  |  | 
CC(C)Sc1nc(N2CCCC2)ccc1Nc1ncc(Cl)c(Nc2ccccc2NS(C)(=O)=O)n1 | 6.49 | 6.01 | 6.12 | < 6.00 | < 6.00 |  |  |  |  |  |  |  |  |  |  |  | 
CCN(CC)c1ccc(Nc2ncc(Cl)c(Nc3ccccc3NS(=O)(=O)C3CC3)n2)c(OC)n1 | 6.59 | 6.19 | 6.34 | 6.92 | < 6.00 |  |  |  |  |  |  |  |  |  |  |  | 
CN1CCN(c2ccc(Nc3ncc(Cl)c(Nc4ccccc4NS(=O)(=O)C4CC4)n3)cn2)CC1 | 7.05 | 6.85 | 7.22 | 6.36 | < 6.00 |  |  |  |  |  |  |  |  |  |  |  | 
COc1nc(N2CCCCC2)ccc1Nc1ncc(Cl)c(Nc2ccccc2NS(C)(=O)=O)n1 | 6.72 | 6.89 | 7.40 | 6.48 | < 6.00 |  |  |  |  |  |  |  |  |  |  |  | 
C/C=C/C(=O)Nc1ccccc1Nc1nc(Nc2ccc(N3CCNC(C)C3)nc2OC)ncc1Cl (stereo unspecified) | 6.04 | < 6.00 | 6.24 | < 6.00 | < 6.00 |  |  |  |  |  |  |  |  |  |  |  | 
COc1nc(N2CC(O)C2)ccc1Nc1ncc(Cl)c(Nc2ccccc2NS(C)(=O)=O)n1 | 7.46 | 7.38 | 7.22 | 7.49 | < 6.00 | 5.70 | 5.85 | 5.28 | 5.80 | < 3.00 |  |  |  |  |  |  | 
CCN(CC)c1ccc(Nc2ncc(Cl)c(Nc3ccccc3NS(C)(=O)=O)n2)c(OC)n1 | 6.51 | 6.44 | 7.22 | 6.74 | < 6.00 |  |  |  |  |  |  |  |  |  |  |  | 
CN1CCN(c2ccc(Nc3ncc(Cl)c(Nc4ccccc4NS(C)(=O)=O)n3)cn2)CC1 | 7.15 | 7.10 | 7.40 | 6.11 | 6.07 |  |  |  |  |  |  |  |  |  |  |  | 
C/C=C/C(=O)Nc1ccccc1Nc1nc(Nc2ccc(N3CCCCC3)nc2OC)ncc1Cl | 6.68 | 6.44 | 7.10 | 6.64 | < 6.00 |  |  |  |  |  |  |  |  |  |  |  | 
COc1nc(N2CCOCC2)ccc1Nc1ncc(Cl)c(Nc2ccccc2NS(=O)(=O)C2CC2)n1 | 6.32 | 7.05 | 7.26 | 6.77 | < 6.00 |  |  |  |  |  |  |  |  |  |  |  | 
CCN1CCN(c2ccc(Nc3ncc(Cl)c(Nc4ccccc4NS(C)(=O)=O)n3)c(OC)n2)CC1 | 6.13 | 6.02 | 6.06 | < 6.00 | < 6.00 |  |  |  |  |  |  |  |  |  |  |  | 
COc1nc(N2CCCCC2)ccc1Nc1ncc(Cl)c(Nc2ccccc2NS(=O)(=O)C2CC2)n1 | 6.41 | 6.57 | 6.32 | 6.20 | < 6.00 |  |  |  |  |  |  |  |  |  |  |  | 
C/C=C/C(=O)Nc1ccccc1Nc1nc(Nc2ccc(N3CCN(C)CC3)nc2OC)ncc1Cl | 6.39 | 6.57 | 7.14 | 6.96 | < 6.00 |  |  |  |  |  |  |  |  |  |  |  | 
COc1nc(N2CCN(C)CC2)ccc1Nc1ncc(Cl)c(Nc2ccccc2NC(C)=O)n1 | 6.85 | 6.80 | 7.57 | 7.05 | 6.15 |  |  |  |  |  |  |  |  |  |  |  | 
CC(C)Sc1nc(N2CCN(C)CC2)ccc1Nc1ncc(Cl)c(Nc2ccccc2NS(C)(=O)=O)n1 | 6.89 | 6.38 | 6.47 | < 6.00 | < 6.00 |  |  |  |  |  |  |  |  |  |  |  | 
COc1nc(N2CCSCC2)ccc1Nc1ncc(Cl)c(Nc2ccccc2NS(C)(=O)=O)n1 | 7.10 | 7.62 | 7.57 | 7.30 | 6.07 | 5.80 | 5.55 | 5.10 | 5.21 | < 3.00 |  |  |  |  |  |  | 
COc1nc(N2CCN(C)CC2)ccc1Nc1ncc(Cl)c(Nc2ccccc2NS(C)(=O)=O)n1 | 7.37 | 7.92 | 8.00 | 7.52 | < 6.00 | 5.89 | 5.68 | 5.41 | 5.64 | < 3.00 | 11 to 23 | 11 to 23 | Dose-dependent effect | Dose-dependent effect | Dose-dependent effect | Active | Active
CC(C)Oc1nc(N2CCN(C)CC2)ccc1Nc1ncc(Cl)c(Nc2ccccc2NS(C)(=O)=O)n1 | 6.59 | 7.34 | 7.74 | 6.06 | 6.06 | 5.32 | 5.38 | 5.03 | 5.70 | < 3.00 |  |  |  |  |  |  | 
COc1nc(N2CCN(CCO)CC2)ccc1Nc1ncc(Cl)c(Nc2ccccc2NS(=O)(=O)C2CC2)n1 | 6.89 | 7.74 | 7.46 | 7.40 | < 6.00 |  |  |  |  |  |  |  |  |  |  |  | 
CC(C)Oc1nc(N2CCCC2)ccc1Nc1ncc(Cl)c(Nc2ccccc2NS(C)(=O)=O)n1 | 7.05 | 6.39 | 6.51 | 6.07 | 6.09 |  |  |  |  |  |  |  |  |  |  |  | 
COc1nc(N2CCN(C)CC2)ccc1Nc1ncc(Cl)c(Nc2ccccc2NS(=O)(=O)C2CC2)n1 | 6.57 | 7.22 | 7.55 | 7.05 | < 6.00 | 5.41 | 5.41 | 5.22 | 5.34 | < 3.00 |  |  |  |  |  |  | 
C/C=C/C(=O)Nc1ccccc1Nc1nc(Nc2ccc(N3CCCC3)nc2OC)ncc1Cl | 6.80 | 6.42 | 6.66 | 6.52 | < 6.00 |  |  |  |  |  |  |  |  |  |  |  | 
COc1nc(N2CCN(CCO)CC2)ccc1Nc1ncc(Cl)c(Nc2ccccc2NS(C)(=O)=O)n1 | 6.96 | 7.15 | 7.42 | 7.05 | < 6.00 | 5.66 | 5.49 | 5.11 | 5.47 | < 3.00 |  |  |  |  |  |  | 
COc1nc(N2CCCC2)ccc1Nc1ncc(Cl)c(Nc2ccccc2NS(=O)(=O)C2CC2)n1 | 6.62 | 6.39 | 6.92 | < 6.00 | < 6.00 |  |  |  |  |  |  |  |  |  |  |  | 
Cc1cc(Nc2ncc(Cl)c(Nc3ccccc3S(=O)(=O)C(C)C)n2)c(OC(C)C)cc1C1CCNCC1 [CERITINIB] |  | 7.59 | 7.39 | < 6.00 | < 6.00 |  |  |  |  |  |  |  |  |  |  |  | 
COc1nc(N2CCNC(C)C2)ccc1Nc1ncc(Cl)c(Nc2ccccc2NS(C)(=O)=O)n1 (stereo unspecified) | 6.36 | 6.31 | 6.41 | < 6.00 | < 6.00 |  |  |  |  |  |  |  |  |  |  |  | 
